# Assay results from patent publication US8742167B2, “Therapeutic formulations based on asiatic acid and selected salts thereof” (Shanghai Institute of Pharmaceutical Industry, priority 2008, dated 2014).
# Values joined by “and” are separate entries in the source; they are usually repeats but may differ in a detail not shown here. Identical values can stand only once. “Also recorded” adds a separate entry of the source. Like-named read-outs stand apart in the source and are kept apart here. Marks after values point to notes of the source that are not given here.
# Tests used:
# [1] = Solubility in water and methanol (saturated solutions, HPLC); type: physicochemical
# Experimental: Approximately 5 mg of asiatic acid were transferred into a 25 mL volumetric flask, and 1 mL, of methanol was added and mixed well, until the acid had dissolved in the methanol. The volumetric flask then was brought to volume with mobile phase and mixed well. [table] Saturated solutions obtained from starting material and salt in methanol and water were filtered and diluted accordingly with mobile phase. No dilution was performed for asiatic acid in water. Samples were prepared in triplicate except for the sodium salt prepared in methanol, for which two preparations were done.
# [2] = test system: bleomycin-induced pulmonary fibrosis in rats; assay: Mortality during experiment days 7-28, bleomycin-induced pulmonary fibrosis in rats; type: in vivo, SD rats
# Experimental: (§1) Male SD rats, body weight 250-300 g. The animals were anesthetized with 3% seconal, laid flat and fixed onto the operating table. The necks of the animals were disinfected with alcohol and cut to expose tracheae. A needle was inserted via the space between tracheal rings centripetally, and 5 mg/kg of bleomycin was injected. The rats were kept upright and rotated, in order to keep the solution uniformly distributed in the lungs. Then the incisions were sutured.
# (§2) After the rats regained consciousness, they were randomly grouped. The animals were divided into (i) a group receiving administration on the next day after establishing the model and (ii) a group receiving administration at 7 days after the model was established. Included were 27, 9, and 3 mg/kg p.o.×28 d asiatic acid groups, 0.6 mg/kg p.o.×28 d dexamethasone group, 36 mg/kg p.o.×28 d asiaticoside group, model group, and blank group. Normal saline was administered for the model and blank groups. On the 28th day after asiatic acid and asiaticoside administration, survival and weight ratio of lungs were measured; pathological examination and serological examination were performed.
# [3] = test system: bleomycin-induced pulmonary fibrosis in rats; assay: Lung weight index of bleomycin-induced pulmonary fibrosis in rats; type: in vivo, SD rats; settings: for lung weight ratio (%): (lung weight/body weight)x100%
# Experimental: as §1, §2
# Effect of on lung weight index of bleomycin-induced pulmonary fibrosis in rats treated with asiatic acid Body weight and lung weight were measured after the rats were sacrificed. Lung weight ratio=(lung weight/body weight)×100%.
# TFG-β = assay: Serological test (ELISA kit) of TFG-β in rats of bleomycin-induced pulmonary fibrosis; type: in vivo, SD rats; settings: for TFG-β (2nd day) X ± SD / TFG-β (7th day) X ± SD: serum; for TFG-β (2nd day) X ± SD: dosing from 2nd day; for TFG-β (7th day) X ± SD: dosing from 7th day; for serum levels of TGF-β (words): treatment initiated one day or seven days after bleomycin
# Experimental: TFG-β Kit, Human 96T ELISA kit imported by Shanghai Jingmei
# as §1, §2
# (§3) Serum samples were prepared according to a standard protocol (centrifuged 3000 rpm, 10 minutes after collection) and were stored at −20° C. Testing was conducted in accordance with kit instructions.
# TNF-α = assay: Serological test (ELISA kit) of TNF-α in rats of bleomycin-induced pulmonary fibrosis; type: in vivo, SD rats; settings: for TNF-α (2nd day) X ± SD / TNF-α (7th day) X ± SD: serum; for TNF-α (2nd day) X ± SD: dosing from 2nd day; for TNF-α (7th day) X ± SD: dosing from 7th day; for serum levels of TNF-α (words): treatment initiated one day or seven days after bleomycin
# Experimental: TNF-α Kit, Human 96T ELISA kit imported by Shanghai Jingmei
# as §1, §2, §3
# Hydroxyproline = assay: Measured value of hydroxyproline in experiment of asiatic acid antagonizing fibrosis; type: in vivo, SD rats; parameters: Measured Value of Hydroxyproline (on 2nd day), single animals / Measured Value of Hydroxyproline (on 2nd day), X / Measured Value of Hydroxyproline (on 7th day), single animals / Measured Value of Hydroxyproline (on 7th day), X: unit not given here; settings: for Measured Value of Hydroxyproline (on 2nd day), X / Measured Value of Hydroxyproline (on 7th day), X: group mean; for Measured Value of Hydroxyproline (on 2nd day), single animals / Measured Value of Hydroxyproline (on 7th day), single animals: individual rats 1-10
# Experimental: as §1, §2
# Type III collagen = Type III collagen content, bleomycin rat model; type: in vivo, SD rats; settings: for Type III collagen content X ± SD: treatment starting on Day 7
# Experimental: as §1, §2
# [4] = test system: pulmonary fibrosis induced by bleomycin in rats; assay: Pathological analysis of lung (HE staining; collagen fiber and elastic fiber dual staining); type: in vivo, SD rats; settings: for collagen fiber and elastic fiber staining / lung pathology, HE staining: administration on the next day after establishing model
# Experimental: as §1, §2
# The lung tissues were fixed in 10% formalin for 1 week. […] The thickness of sections was […]. Routine hematoxylin-eosin (HE) staining was performed. Dual special staining of collagen fibers and elastic fibers were conducted in order to detect the degree of fibrosis. The staining of the two groups of sections was observed and the results were as follows.
# [5] = asiatic acid high dose (27 mg/kg)
# [6] = asiatic acid low dose (3 mg/kg)
# [7] = asiatic acid middle dose (9 mg/kg)
compound,measurement,setting,value
"C[C@H]1[C@H](C)CC[C@]2(C(=O)O)CC[C@]3(C)C(=CC[C@@H]4[C@@]5(C)C[C@@H](O)[C@H](O)[C@@](C)(CO)[C@@H]5CC[C@]43C)[C@H]12 [Asiatic acid, asiatic acid]",Solubility,"[1]; MeOH, single preparations (inj 1A-1C), listed as Asiatic acid raw material",37200 µg/mL and 34870 µg/mL
same,solubility in methanol,[1]; methanol,good solubility
same,Solubility,"[1]; methanol, organic solvent or mixture, thermodynamic from solid, MeOH, single preparations (inj 1A-1C), read-out: Solubility",27200 µg/mL
same,Solubility,"[1]; water, thermodynamic from solid, water, read-out: Solubility in water",30 µg/mL
same,Solubility,"[1]; water, thermodynamic from solid, water, single preparations (inj 1A-1C), read-out: Solubility",30 µg/mL
same,Solubility,"[1]; water, single preparations (inj 1A-1C), listed as Asiatic acid raw material",40 µg/mL and 20 µg/mL
same,remaining samples at the end of study,"[2]; Asiatic acid-H (27 mg/kg p.o. x 28 d), dosing started on 2nd day, 13 on day 7",13
same,number of deaths,"[2]; Asiatic acid-H (27 mg/kg p.o. x 28 d), dosing started on 2nd day, days 7-28",0
same,number of deaths,"[2]; Asiatic acid-H (27 mg/kg p.o. x 28 d), dosing started on 7th day",0
same,remaining samples at the end of study,"[2]; Asiatic acid-H (27 mg/kg p.o. x 28 d), dosing started on 7th day, 13 in the group",13
same,remaining samples at the end of study,"[2]; Asiatic acid-L (3 mg/kg p.o. x 28 d), dosing started on 2nd day, 13 on day 7",11
same,number of deaths,"[2]; Asiatic acid-L (3 mg/kg p.o. x 28 d), dosing started on 2nd day, days 7-28",2
same,number of deaths,"[2]; Asiatic acid-L (3 mg/kg p.o. x 28 d), dosing started on 7th day",1
same,remaining samples at the end of study,"[2]; Asiatic acid-L (3 mg/kg p.o. x 28 d), dosing started on 7th day, 13 in the group",12
same,remaining samples at the end of study,"[2]; Asiatic acid-M (9 mg/kg p.o. x 28 d), dosing started on 2nd day, 14 on day 7",13
same,number of deaths,"[2]; Asiatic acid-M (9 mg/kg p.o. x 28 d), dosing started on 2nd day, days 7-28",1
same,number of deaths,"[2]; Asiatic acid-M (9 mg/kg p.o. x 28 d), dosing started on 7th day",1
same,remaining samples at the end of study,"[2]; Asiatic acid-M (9 mg/kg p.o. x 28 d), dosing started on 7th day, 13 in the group",12
same,survival / bleomycin-induced death,"[2]; rats treated with bleomycin, treatment initiated one day or seven days after bleomycin",largely prevented bleomycin-induced death; also recorded: significantly enhance survival
same,lung weight ratio (%),"[3]; asiatic acid 3 mg/kg, started 7 day after model established",0.83** %
same,lung weight ratio (%),"[3]; asiatic acid 3 mg/kg, started from the second day",0.84** %
same,lung weight ratio (%),"[3]; asiatic acid 9 mg/kg, started 7 day after model established",0.82** %
same,lung weight ratio (%),"[3]; asiatic acid 9 mg/kg, started from the second day",0.78** %
same,lung weight ratio (%),"[3]; asiatic acid 27 mg/kg, started 7 day after model established",0.73** %
same,lung weight ratio (%),"[3]; asiatic acid 27 mg/kg, started from the second day",0.69** %
same,lung weight (g) X ± SD,"[3]; asiatic acid 3 mg/kg, 28-day administration started 7 day after model established",2.64 ± 0.33 g
same,lung weight (g) X ± SD,"[3]; asiatic acid 3 mg/kg, 28-day administration started from the second day",2.74 ± 0.54 g
same,lung weight (g) X ± SD,"[3]; asiatic acid 9 mg/kg, 28-day administration started 7 day after model established",2.69 ± 0.53 g
same,lung weight (g) X ± SD,"[3]; asiatic acid 9 mg/kg, 28-day administration started from the second day",2.49 ± 0.40 g
same,lung weight (g) X ± SD,"[3]; asiatic acid 27 mg/kg, 28-day administration started 7 day after model established",2.52 ± 0.25 g
same,lung weight (g) X ± SD,"[3]; asiatic acid 27 mg/kg, 28-day administration started from the second day",2.41 ± 0.38 g
same,lung weight to body weight ratio,"[3]; starting on 2nd or 7th day, compared with the model group",significantly lower; also recorded: significantly decrease bleomycin-induced lung fibrosis
same,TFG-β (2nd day) X ± SD,TFG-β; asiatic acid 3 mg/kg,0.726 ± 0.220 OD value
same,TFG-β (7th day) X ± SD,TFG-β; asiatic acid 3 mg/kg,1.494 ± 0.273 OD value
same,TFG-β (2nd day) X ± SD,TFG-β; asiatic acid 9 mg/kg,0.642 ± 0.139 OD value
same,TFG-β (7th day) X ± SD,TFG-β; asiatic acid 9 mg/kg,1.165 ± 0.412 OD value
same,TFG-β (2nd day) X ± SD,TFG-β; asiatic acid 27 mg/kg,0.653 ± 0.157 OD value
same,TFG-β (7th day) X ± SD,TFG-β; asiatic acid 27 mg/kg,1.049 ± 0.363 OD value
same,serum levels of TGF-β (words),TFG-β,significantly reduces
same,serum levels of TGF-β (words),TFG-β; listed as asiatic acid,can lower
same,TNF-α (2nd day) X ± SD,TNF-α; asiatic acid 3 mg/kg,0.055 ± 0.008 OD value
same,TNF-α (7th day) X ± SD,TNF-α; asiatic acid 3 mg/kg,0.084 ± 0.018 OD value
same,TNF-α (2nd day) X ± SD,TNF-α; asiatic acid 9 mg/kg,0.056 ± 0.016 OD value
same,TNF-α (7th day) X ± SD,TNF-α; asiatic acid 9 mg/kg,0.096 ± 0.036 OD value
same,TNF-α (2nd day) X ± SD,TNF-α; asiatic acid 27 mg/kg,0.050 ± 0.007 OD value
same,TNF-α (7th day) X ± SD,TNF-α; asiatic acid 27 mg/kg,0.047 ± 0.013 OD value
same,serum levels of TNF-α (words),TNF-α,significantly reduces
same,serum levels of TNF-α (words),TNF-α; listed as asiatic acid,can lower
same,"Measured Value of Hydroxyproline (on 2nd day), X",Hydroxyproline; asiatic acid 3 mg/kg,24.31
same,"Measured Value of Hydroxyproline (on 7th day), X",Hydroxyproline; asiatic acid 3 mg/kg,25.65
same,"Measured Value of Hydroxyproline (on 2nd day), single animals",Hydroxyproline; asiatic acid 3 mg/kg,19.57 and 28.21 and 24.03 and 19.66 and 25.61 and 26.55 and 26.34 and 24.09 and 19.07 and 29.99
same,"Measured Value of Hydroxyproline (on 7th day), single animals",Hydroxyproline; asiatic acid 3 mg/kg,20.31 and 27.14 and 28.27 and 26.14 and 28.01 and 29.34 and 25.07 and 25.36 and 25.47 and 21.37
same,"Measured Value of Hydroxyproline (on 2nd day), X",Hydroxyproline; asiatic acid 9 mg/kg,22.94
same,"Measured Value of Hydroxyproline (on 7th day), X",Hydroxyproline; asiatic acid 9 mg/kg,25.21
same,"Measured Value of Hydroxyproline (on 2nd day), single animals",Hydroxyproline; asiatic acid 9 mg/kg,28.26 and 15.05 and 29.14 and 28.98 and 27.69 and 19.03 and 19.46 and 18.22 and 24.01 and 19.56
same,"Measured Value of Hydroxyproline (on 7th day), single animals",Hydroxyproline; asiatic acid 9 mg/kg,28.19 and 24.39 (2×) and 27.98 and 28.36 and 19.36 and 24.64 and 25.66 and 29.47 and 19.66
same,"Measured Value of Hydroxyproline (on 2nd day), X",Hydroxyproline; asiatic acid 27 mg/kg,21.65
same,"Measured Value of Hydroxyproline (on 7th day), X",Hydroxyproline; asiatic acid 27 mg/kg,23.40
same,"Measured Value of Hydroxyproline (on 2nd day), single animals",Hydroxyproline; asiatic acid 27 mg/kg,17.64 and 25.36 and 25.18 and 24.36 and 20.19 and 18.6 and 19.36 and 20.97 and 27.69 and 17.11
same,"Measured Value of Hydroxyproline (on 7th day), single animals",Hydroxyproline; asiatic acid 27 mg/kg,19.68 and 19.47 and 20.14 and 24.36 (2×) and 27.14 and 25.1 and 26.38 and 27.66 and 19.74
same,serum levels of hydroxyproline,Hydroxyproline; overall statement,significantly decrease bleomycin-induced fibrosis
same,Type III collagen content X ± SD,Type III collagen; asiatic acid Medium dose (9 mg/kg),0.515 ± 0.398
same,Type III collagen content X ± SD,Type III collagen; [5],0.387 ± 0.287
same,Type III collagen content X ± SD,Type III collagen; [6],0.764 ± 0.826
same,serum levels of type III collagen,Type III collagen; overall statement,significantly decrease bleomycin-induced fibrosis
same,collagen fiber and elastic fiber staining,[4]; [5],only a little fibroplastic proliferation
same,"lung pathology, HE staining",[4]; [5],mild infiltration of inflammatory cells
same,efficacy by pathology compared with asiaticoside group,[4]; asiatic acid high-dose group,better than in the asiaticoside group
same,"lung pathology, HE staining",[4]; [6],mild inflammation and alveolitis
same,collagen fiber and elastic fiber staining,[4]; [7],significantly milder than that of the model group
same,"lung pathology, HE staining",[4]; [7],mild infiltration of inflammatory cells
same,bleomycin-induced lung fibrosis by lung histopathology,[4]; overall statement,"effective against bleomycin-induced pulmonary fibrosis, on a dose-response basis; also recorded: reduces the extent of bleomycin-induced lung fibrosis"
same,lung fibrosis by histopathology compared with dexamethasone,[4]; treatment initiated seven days after bleomycin insult,more effective than dexamethasone
